Measurements reported in patent publication US20220242879A1, “FUSED HETEROCYCLE DERIVATIVES” (Janssen Sciences Ireland Unlimited Company, priority 2019, published 2022).

Key:
[1] = system: HBV; test: Anti-HBV activity, HepG2.117 cell line, intracellular HBV DNA by real-time PCR; assay type: cell-based, Hepatitis B virus; settings: mean value; HepG2.117 cells, 3 days of treatment, intracellular HBV DNA; read-out: HBV-AVE-HepG2.117 EC50
Experimental: The anti HBV activity was measured using the HepG2.117 cell line, a stable, inducibly HBV producing cell line, which replicates HBV in the absence of doxicycline (Tet-off system). The HepG2 cell line is available from ATCC® under number HB-8065. Transfection of the HepG2 cell line can be as described in Sun and Nassal 2006 Journal of Hepatology 45 (2006) 636-645 “Stable HepG2- and Huh7-based human hepatoma cell lines for efficient regulated expression of infectious hepatitis B virus”.
For the antiviral assay, HBV replication was induced, followed by a treatment with serially diluted compound in 96-well plates. After 3 days of treatment, the antiviral activity was determined by, quantification of intracellular HBV DNA using real-time PCR and an HBV specific primer set and probe.

[2] = system: HepG2.117 cells; test: Cytotoxicity, ATPlite Luminescence Assay; assay type: cell-based, human; settings: mean value; cells incubated for 3 days, viability by ATPlite; read-out: TOX-HepC2.117 CC50
Experimental: Cytotoxicity of the compounds was tested using HepG2 or HepG2.117 cells, incubated for 3 days in the presence of compounds. The viability of the cells was assessed using the PERKIN ELMER ATPlite Luminescence Assay System.”

[3] = system: HBV; test: HBV replication inhibition assay (BDNA assay), HepG2.2.15 cells; assay type: cell-based, Hepatitis B virus; settings: 6 days, HBV DNA in supernatant by branched DNA QuantiGene
Experimental: HBV replication inhibition by the disclosed compounds were determined in cells infected or transfected with HBV or cells with stably integrated HBV, such as HepG2.2.15 cells (Sells et al. 1987). In this example, HepG2.2.15 cells were maintained in cell culture medium containing 10% fetal bovine serum (FBS), Geneticin, L-glutamine, penicillin and streptomycin. HepG2.2.15 cells were seeded in 96-well plates at a density of 40,000 cells/well and were treated with serially diluted compounds at a final DMSO concentration of 0.5% either alone or in combination by adding drugs in a checker box format. […] HBV DNA was denatured by addition of 0.2 M NaOH and detected using a branched DNA (BDNA) QuantiGene assay kit according to manufacturer recommendation (Affymetrix). HBV DNA levels were also quantified using qPCR, based on amplification of encapsidated HBV DNA extraction with QuickExtraction Solution (Epicentre Biotechnologies) and amplification of HBV DNA using HBV specific PCR probes that can hybridize to HBV DNA and a fluorescently labeled probe for quantitation. In addition, cell viability of HepG2.2.15 cells incubated with test compounds alone or in combination was determined by using CellTitre-Glo reagent according to the manufacturer protocol (Promega). […]

CNC(=O)[C@@H]1Cc2conc2-c2c3c(nn2C1)C[C@@H](C)N(C(=O)c1ccc(Cl)c(Cl)c1)C3 (single isomer, unassigned) [Compound 47] was tested, and the EC50 [1] was 265 nM and the CC50 [2] was > 50000 nM.
N#Cc1cc(NC(=O)N2CCc3nn4c(c3C2)-c2nocc2CC(COCC(F)F)C4)ccc1F (single isomer, unassigned) [Example 7a, (5R*)-N-(3-Cyano-4-fluorophenyl)-5-((2,2-difluoroethoxy)methyl)-5,6,9,10-tetrahydro-4H-isoxazolo[3,4-c]pyrido[4′,3′:3,4]pyrazolo[1,5-a]azepine-11(12H)-carboxamide] was tested, and the EC50 [3] was 21 nM.
Work on N#Cc1cc(NC(=O)N2CCc3nn4c(c3C2)-c2nocc2CC(COCC(F)F)C4)ccc1F (single isomer, unassigned) [Example 5a, (5S*)-N-3-Cyano-4-fluorophenyl)-5-(2,2-difluoroethoxy)methyl)-5,6,9,10-tetrahydro-4H-isoxazolo[3,4-c]pyrido[4′,3′:3,4]pyrazolo[1,5-a]azepine-11(12H)-carboxamide] yielded an EC50 [3] of 82 nM.
